Results on seven molecules are retold here after patent publication US8906928B2, “Substituted pyrazolo-pyrrolo-pyridine-dione compounds” (ArQule, Inc., priority 2009, dated 2014).

Each structure is given as a SMILES string.

What all share (type): cell-based
The test system of test [1] is PC-3. The experiment in a line: MTS assay (cell growth inhibition), PC-3. Particulars: PC-3 cells, 72 hours incubation with test compound; concentration not given. As to the method: (§1) Cells were maintained at 37° C., 5% CO2 in DMEM media supplemented with 1% fetal bovine serum, penicillin/streptomycin and fungizone (Invitrogen). Cells were seeded into 96-well tissue culture plates at 3000 per well and cultured at 37° C. for 18 hours. Test compounds were dissolved and diluted to 300× in DMSO then diluted 1:40 in DMEM. Cells were incubated with test compounds for 72 hours followed by incubation with tetrazolium compound (3-(4,5-dimethylthiazol-2-yl)-5-(3-carboxymethoxyphenyl)-2-(4-sulfophenyl)-2H-tetrazolium, inner salt; MTS) and the electron coupling reagent, phenazine methosulfate (PMS) for 4 hours. […] The ability of compounds to inhibit cell growth in this assay is correlated with the reduction of dehydrogenase enzyme activity found in metabolically active cells. The measurement of the absorbance of the formazan was assessed using an ENVISION™ (Perkin Elmer) microplate reader at 492 nm. The calculated IC50 value is the concentration of the test compound that causes a 50% decrease in the absorbance.

Test [2] concerns MDA-MB. In words: MTS assay (cell growth inhibition), MDA-MB. To be noted: MDA-MB cells, 72 hours incubation with test compound; concentration not given. The protocol:
as §1

Test [3] deals with PACA-2. The experiment in a line: MTS assay (cell growth inhibition), PACA-2. Particulars: PACA-2 cells, 72 hours incubation with test compound; concentration not given. The protocol: as §1
The test system of test [4] is Kato III. The experiment in a line: MTS assay (cell growth inhibition), Kato III. To be noted: Kato III cells, 72 hours incubation with test compound; concentration not given. As to the method: as §1
In test [5] the test system is NCI-H1299. The experiment in a line: MTS assay (cell growth inhibition), NCI-H1299. Particulars: NCI-H1299 cells, 72 hours incubation with test compound; concentration not given. The protocol:
as §1

Test [6] has as its system DLD-1. The experiment in a line: MTS assay (cell growth inhibition), DLD-1. Particulars: DLD-1 cells, 72 hours incubation with test compound; concentration not given. The protocol: as §1

Regarding `COc1cccc(CN2C(=O)c3cnc4[nH]ncc4c3C2=O)c1OC` [Example 92, 7-(2,3-dimethoxybenzyl)pyrazolo[3,4-b]pyrrolo[3,4-d]pyridine-6,8(3H,7H)-dione], the “MTS CELL KILL DATA (% INHIBITION) PC-3” value in test [1] is “C (C = <50% INHIBITION)”. Besides, in test [2], the “MTS CELL KILL DATA (% INHIBITION) MDA-MB” value is recorded as “C (C = <50% INHIBITION)”. The “MTS CELL KILL DATA (% INHIBITION) PACA-2” value in test [3] is “C (C = <50% INHIBITION)”. The “MTS CELL KILL DATA (% INHIBITION) Kato III” value in test [4] is reported as “C (C = <50% INHIBITION)”. Besides, the “MTS CELL KILL DATA (% INHIBITION) NCI-H1299” value in test [5] was “C (C = <50% INHIBITION)”. Further, in test [6], the “MTS CELL KILL DATA (% INHIBITION) DLD-1” value is “C (C = <50% INHIBITION)”.
As for `CC(CN1C(=O)c2cnc3[nH]ncc3c2C1=O)c1ccccc1` (stereo not drawn) [Example 96, 7-(2-phenylpropyl)pyrazolo[3,4-b]pyrrolo[3,4-d]pyridine-6,8(3H,7H)-dione], in test [1], the “MTS CELL KILL DATA (% INHIBITION) PC-3” value is “C (C = <50% INHIBITION)”. Besides, the “MTS CELL KILL DATA (% INHIBITION) MDA-MB” value in test [2] is reported as “C (C = <50% INHIBITION)”. Also, the “MTS CELL KILL DATA (% INHIBITION) PACA-2” value in test [3] is given as “C (C = <50% INHIBITION)”. Also, in test [4], the “MTS CELL KILL DATA (% INHIBITION) Kato III” value is listed as “C (C = <50% INHIBITION)”. Also, the “MTS CELL KILL DATA (% INHIBITION) NCI-H1299” value in test [5] is “C (C = <50% INHIBITION)”. Besides, the “MTS CELL KILL DATA (% INHIBITION) DLD-1” value in test [6] is recorded as “C (C = <50% INHIBITION)”.
On to `O=C1c2cnc3[nH]ncc3c2C(=O)N1Cc1c(F)ccc(Cl)c1Cl` [Example 97, 7-(2,3-dichloro-6-fluorobenzyl)pyrazolo[3,4-b]pyrrolo[3,4-d]pyridine-6,8(3H,7H)-dione], for which the “MTS CELL KILL DATA (% INHIBITION) PC-3” value in test [1] is listed as “C (C = <50% INHIBITION)”. The “MTS CELL KILL DATA (% INHIBITION) MDA-MB” value in test [2] was “C (C = <50% INHIBITION)”. In test [3], the “MTS CELL KILL DATA (% INHIBITION) PACA-2” value was “C (C = <50% INHIBITION)”. Besides, the “MTS CELL KILL DATA (% INHIBITION) Kato III” value in test [4] is recorded as “C (C = <50% INHIBITION)”. In test [5], the “MTS CELL KILL DATA (% INHIBITION) NCI-H1299” value was “C (C = <50% INHIBITION)”. In addition, the “MTS CELL KILL DATA (% INHIBITION) DLD-1” value in test [6] is on record as “C (C = <50% INHIBITION)”.
Turning to `O=C1c2cnc3[nH]ncc3c2C(=O)N1Cc1ccccc1Br` [Example 99, 7-(2-bromobenzyl)pyrazolo[3,4-b]pyrrolo[3,4-d]pyridine-6,8(3H,7H)-dione], the “MTS CELL KILL DATA (% INHIBITION) PC-3” value in test [1] is “C (C = <50% INHIBITION)”. Also, the “MTS CELL KILL DATA (% INHIBITION) MDA-MB” value in test [2] was “C (C = <50% INHIBITION)”. The “MTS CELL KILL DATA (% INHIBITION) PACA-2” value in test [3] is “C (C = <50% INHIBITION)”. The “MTS CELL KILL DATA (% INHIBITION) Kato III” value in test [4] was “C (C = <50% INHIBITION)”. Moreover, the “MTS CELL KILL DATA (% INHIBITION) NCI-H1299” value in test [5] is given as “C (C = <50% INHIBITION)”. Also, the “MTS CELL KILL DATA (% INHIBITION) DLD-1” value in test [6] is reported as “C (C = <50% INHIBITION)”.
With `O=C1c2cnc3[nH]ncc3c2C(=O)N1Cc1cccc(I)c1` [Example 101, 7-(3-iodobenzyl)pyrazolo[3,4-b]pyrrolo[3,4-d]pyridine-6,8(3H,7H)-dione], the “MTS CELL KILL DATA (% INHIBITION) PC-3” value in test [1] is recorded as “A (A = 80-100% INHIBITION)”. The “MTS CELL KILL DATA (% INHIBITION) MDA-MB” value in test [2] is listed as “A (A = 80-100% INHIBITION)”. Moreover, in test [3], the “MTS CELL KILL DATA (% INHIBITION) PACA-2” value is given as “C (C = <50% INHIBITION)”. In test [4], the “MTS CELL KILL DATA (% INHIBITION) Kato III” value is given as “A (A = 80-100% INHIBITION)”. In test [5], the “MTS CELL KILL DATA (% INHIBITION) NCI-H1299” value is “C (C = <50% INHIBITION)”. Also, in test [6], the “MTS CELL KILL DATA (% INHIBITION) DLD-1” value is “B (B = 50-79% INHIBITION)”.
On to `O=C1c2cnc3[nH]ncc3c2C(=O)N1Cc1cccc(Br)c1` [Example 104, 7-(3-bromobenzyl)pyrazolo[3,4-b]pyrrolo[3,4-d]pyridine-6,8(3H ,7H)-dione], for which, in test [1], the “MTS CELL KILL DATA (% INHIBITION) PC-3” value was “A (A = 80-100% INHIBITION)”. Further, the “MTS CELL KILL DATA (% INHIBITION) MDA-MB” value in test [2] is on record as “A (A = 80-100% INHIBITION)”. Also, the “MTS CELL KILL DATA (% INHIBITION) PACA-2” value in test [3] is on record as “A (A = 80-100% INHIBITION)”. Also, in test [4], the “MTS CELL KILL DATA (% INHIBITION) Kato III” value is “A (A = 80-100% INHIBITION)”. Further, the “MTS CELL KILL DATA (% INHIBITION) NCI-H1299” value in test [5] is recorded as “A (A = 80-100% INHIBITION)”. Besides, the “MTS CELL KILL DATA (% INHIBITION) DLD-1” value in test [6] is given as “A (A = 80-100% INHIBITION)”.
Turning to `O=C1c2cnc3[nH]ncc3c2C(=O)N1CC1CCCO1` (stereo not drawn) [Example 107, 7-(tetrahydrofuran-2-ylmethyl)pyrazolo[3,4-b]pyrrolo[3,4-d]pyridine-6,8(3H,7H)-dione], the “MTS CELL KILL DATA (% INHIBITION) PC-3” value in test [1] is reported as “B (B = 50-79% INHIBITION)”. Moreover, the “MTS CELL KILL DATA (% INHIBITION) MDA-MB” value in test [2] was “B (B = 50-79% INHIBITION)”. In addition, in test [3], the “MTS CELL KILL DATA (% INHIBITION) PACA-2” value is “C (C = <50% INHIBITION)”. Moreover, the “MTS CELL KILL DATA (% INHIBITION) Kato III” value in test [4] is on record as “C (C = <50% INHIBITION)”. Besides, the “MTS CELL KILL DATA (% INHIBITION) NCI-H1299” value in test [5] is “C (C = <50% INHIBITION)”. For the same molecule, the “MTS CELL KILL DATA (% INHIBITION) DLD-1” value in test [6] was “C (C = <50% INHIBITION)”.
